Source: ChEMBL document CHEMBL5331122, “Structure-Activity Relationship Study of Antimicrobial Peptide PE2 Delivered Novel Linear Derivatives with Potential of Eradicating Biofilms and Low Incidence of Drug Resistance” (J Med Chem, 2023)
In brackets after ≈: the same amount, converted by molar mass. Activity calls are given as the source filed them. The calls are words filed in the database; no cut-off is given here. Where a SMILES comes first, the peptide text is derived from it. Bridges are numbered along the chain shown (N, C = ends). [ ]: non-standard residue; d: D form. The star is where a group is joined. Heptanoyl(6-Me) = CC(C)CCCCC(=O)*; Dab = NCC[C@H](N)C(=O)O

Experiments:
Escherichia coli [1] = experiment: Antibacterial activity against Escherichia coli ATCC 25922 assessed as bacterial growth inhibition incubated for 18 hrs by broth microdilution method; type: functional
Klebsiella pneumoniae = experiment: Antibacterial activity against Klebsiella pneumoniae ATCC 700603 assessed as bacterial growth inhibition incubated for 18 hrs by broth microdilution method; type: functional
Pseudomonas aeruginosa = experiment: Antibacterial activity against Pseudomonas aeruginosa ATCC 27853 assessed as bacterial growth inhibition incubated for 18 hrs by broth microdilution method; type: functional
Staphylococcus aureus [2] = experiment: Antibacterial activity against Staphylococcus aureus ATCC 25923 assessed as bacterial growth inhibition incubated for 18 hrs by broth microdilution method; type: functional
Bacillus subtilis = experiment: Antibacterial activity against Bacillus subtilis ATCC 23857 assessed as bacterial growth inhibition incubated for 18 hrs by broth microdilution method; type: functional
Enterococcus faecalis = experiment: Antibacterial activity against Enterococcus faecalis ATCC 29212 assessed as bacterial growth inhibition incubated for 18 hrs by broth microdilution method; type: functional
Escherichia coli [3] = experiment: Induction of drug resistance against Escherichia coli ATCC 25922measured after 5 to 7 passages by sequential passaging method; type: functional
Escherichia coli [4] = experiment: Induction of drug resistance against Escherichia coli ATCC 25922 assessed as fold increase in MIC measured upto 15 passages by sequential passaging method; type: functional
Staphylococcus aureus [5] = experiment: Induction of drug resistance against Staphylococcus aureus ATCC 25923 assessed as fold increase in MIC measured upto 15 passages by sequential passaging method; type: functional
Escherichia coli [6] = experiment: Antibacterial activity against rifampicin-resistant Escherichia coli ATCC 25922 assessed as reduction in bacterial growth incubated for 18 hrs by broth microdilution method; type: functional
Staphylococcus aureus [7] = experiment: Antibacterial activity against rifampicin-resistant Staphylococcus aureus ATCC 25923 assessed as reduction in bacterial growth incubated for 18 hrs by broth microdilution method; type: functional
Escherichia coli [8] = experiment: Antibacterial activity against Escherichia coli ATCC 25922 assessed as fold increase in MIC in presence of NaCl; type: functional
Escherichia coli [9] = experiment: Antibacterial activity against Escherichia coli ATCC 25922 assessed as fold increase in MIC in presence of KCl; type: functional
Escherichia coli [10] = experiment: Antibacterial activity against Escherichia coli ATCC 25922 assessed as fold increase in MIC in presence of MgCl2; type: functional
Escherichia coli [11] = experiment: Antibacterial activity against Escherichia coli ATCC 25922 assessed as fold increase in MIC in presence of ZnCl2; type: functional
Escherichia coli [12] = experiment: Antibacterial activity against Escherichia coli ATCC 25922 assessed as fold increase in MIC in presence of FeCl3; type: functional
Staphylococcus aureus [13] = experiment: Antibacterial activity against Staphylococcus aureus ATCC 25923 assessed as fold increase in MIC in presence of NaCl; type: functional
Staphylococcus aureus [14] = experiment: Antibacterial activity against Staphylococcus aureus ATCC 25923 assessed as fold increase in MIC in presence of KCl; type: functional
Staphylococcus aureus [15] = experiment: Antibacterial activity against Staphylococcus aureus ATCC 25923 assessed as fold increase in MIC in presence of MgCl2; type: functional
Staphylococcus aureus [16] = experiment: Antibacterial activity against Staphylococcus aureus ATCC 25923 assessed as fold increase in MIC in presence of ZnCl2; type: functional
Staphylococcus aureus [17] = experiment: Antibacterial activity against Staphylococcus aureus ATCC 25923 assessed as fold increase in MIC in presence of FeCl3; type: functional
Erythrocyte = experiment: Hemolytic activity in mouse red blood cell assessed as hemolysis incubated for 1 hr; type: toxicity, cell-based; details: dose 4-256 µg/ml
[18] = Hemolytic activity in mouse red blood cells assessed as hemolysis at 256 microg/ml incubated for 1 hr relative to control; type: toxicity, cell-based, Erythrocyte; details: red blood cells (erythrocytes), at 256 µg/mL, read-out: Activity

SMILES	MIC (Escherichia coli [1]) [µg/mL]	MIC (Klebsiella pneumoniae) [µg/mL]	MIC (Pseudomonas aeruginosa) [µg/mL]	MIC (Staphylococcus aureus [2]) [µg/mL]	MIC (Bacillus subtilis) [µg/mL]	MIC (Enterococcus faecalis) [µg/mL]	HC10 (Erythrocyte) [µg/mL]	hemolysis at 1 h, 256 µg/mL [18] [%]	further results
CO[C@H]1/C=C/O[C@@]2(C)Oc3c(C)c(O)c4c(O)c(c(/C=N/N5CCN(C)CC5)c(O)c4c3C2=O)NC(=O)/C(C)=C\C=C\[C@H](C)[C@H](O)[C@@H](C)[C@@H](O)[C@@H](C)[C@H](OC(C)=O)[C@@H]1C [RIFAMPIN]	4 (≈ 4.86 µM)	32 (≈ 38.9 µM)	32 (≈ 38.9 µM)	< 1	< 1	< 1	–	–	Activity (Escherichia coli [3]): Active; fold change (FC) (Escherichia coli [4]): 64; fold change (FC) (Staphylococcus aureus [5]): 512; MIC (Escherichia coli [6]): 4100 µg/mL (≈ 4980 µM); MIC (Staphylococcus aureus [7]): 2050 µg/mL (≈ 2490 µM)
CC(C)CCCCC(=O)N[C@@H](CCN)C(=O)N[C@H](C(=O)N[C@@H](CCN)C(=O)N[C@H]1CCNC(=O)[C@H]([C@@H](C)O)NC(=O)[C@H](CCN)NC(=O)[C@H](CCN)NC(=O)[C@H](CC(C)C)NC(=O)[C@@H](Cc2ccccc2)NC(=O)[C@H](CCN)NC1=O)[C@@H](C)O ({Heptanoyl(6-Me)}-[Dab]T[Dab][Dab][Dab][dF]L[Dab][Dab]T; lactam 4-C)	< 1	4 (≈ 3.36 µM)	2 (≈ 1.68 µM)	16 (≈ 13.5 µM)	8 (≈ 6.73 µM)	128 (≈ 108 µM)	–	–	fold change (FC) (Escherichia coli [8]): <=2; fold change (FC) (Escherichia coli [9]): <=2; fold change (FC) (Escherichia coli [10]): <=2; fold change (FC) (Escherichia coli [11]): <=2; fold change (FC) (Escherichia coli [12]): <=2; fold change (FC) (Staphylococcus aureus [13]): 4; fold change (FC) (Staphylococcus aureus [14]): 4; fold change (FC) (Staphylococcus aureus [15]): 4; fold change (FC) (Staphylococcus aureus [16]): 4; fold change (FC) (Staphylococcus aureus [17]): 4
CC[C@H](C)[C@@H]1NC(=O)[C@H](CCN)NC(=O)[C@H](CC(C)C)NC(=O)[C@H]([C@@H](C)O)NC(=O)[C@H](CC(C)C)NC(=O)[C@@H](C(C)C)NC(=O)[C@H](CCN)NC(=O)[C@H](CC(C)C)NC(=O)[C@@H](Cc2ccccc2)NC(=O)[C@H](CCN)NC1=O	32 (≈ 29.1 µM)	32 (≈ 29.1 µM)	16 (≈ 14.5 µM)	> 128	16 (≈ 14.5 µM)	> 128	512	< 5	–
CCCCCC(=O)N[C@@H](CCN)C(=O)N[C@H](C(=O)N[C@@H](CCN)C(=O)N[C@H](Cc1ccccc1)C(=O)N[C@@H](CC(C)C)C(=O)N[C@@H](CCN)C(=O)N[C@@H](C(=O)N[C@@H](CC(C)C)C(=O)N[C@H](C(N)=O)[C@@H](C)O)C(C)C)[C@@H](C)CC	16 (≈ 14.5 µM)	32 (≈ 29 µM)	4 (≈ 3.63 µM)	32 (≈ 29 µM)	4 (≈ 3.63 µM)	128 (≈ 116 µM)	512	< 10	–
CCCCCC(=O)N[C@@H](CCN)C(=O)N[C@H](C(=O)N[C@@H](CCN)C(=O)N[C@H](Cc1ccccc1)C(=O)N[C@@H](CC(C)C)C(=O)N[C@@H](CCN)C(=O)N[C@@H](C(=O)N[C@@H](CC(C)C)C(=O)N[C@@H](C)C(N)=O)C(C)C)[C@@H](C)CC	32 (≈ 29.8 µM)	64 (≈ 59.7 µM)	4 (≈ 3.73 µM)	64 (≈ 59.7 µM)	8 (≈ 7.46 µM)	> 128	512	< 5	–
CCCCCC(=O)N[C@@H](CCN)C(=O)N[C@H](C(=O)N[C@@H](CCN)C(=O)N[C@H](Cc1ccccc1)C(=O)N[C@@H](CC(C)C)C(=O)N[C@H]1CCNC(=O)[C@H]([C@@H](C)O)NC(=O)[C@H](CC(C)C)NC(=O)[C@@H](C(C)C)NC1=O)[C@@H](C)CC	16 (≈ 14.7 µM)	128 (≈ 118 µM)	128 (≈ 118 µM)	32 (≈ 29.5 µM)	4 (≈ 3.69 µM)	> 128	512	< 5	–
CCCCCC(=O)N[C@@H](CCN)C(=O)N[C@H](C(=O)N[C@@H](CCN)C(=O)N[C@H](Cc1ccccc1)C(=O)N[C@@H](CC(C)C)C(=O)N[C@@H](CCN)C(=O)N[C@@H](C(=O)N[C@@H](CC(C)C)C(=O)N[C@@H](Cc1ccc(O)cc1)C(N)=O)C(C)C)[C@@H](C)CC	4 (≈ 3.43 µM)	8 (≈ 6.87 µM)	16 (≈ 13.7 µM)	16 (≈ 13.7 µM)	4 (≈ 3.43 µM)	64 (≈ 55 µM)	512	< 5	–
CCC[C@H](O)CC(=O)N[C@@H](CCN)C(=O)N[C@H](C(=O)N[C@@H](CCN)C(=O)N[C@H](Cc1ccccc1)C(=O)N[C@@H](CC(C)C)C(=O)N[C@@H](CCN)C(=O)N[C@@H](C(=O)N[C@@H](CC(C)C)C(=O)N[C@H](C(N)=O)[C@@H](C)O)C(C)C)[C@@H](C)CC	32 (≈ 28.6 µM)	64 (≈ 57.2 µM)	4 (≈ 3.58 µM)	128 (≈ 114 µM)	8 (≈ 7.15 µM)	> 128	512	< 2	–
CCCCCC(=O)N[C@@H](CCN)C(=O)N[C@H](C(=O)N[C@@H](CCN)C(=O)N[C@H](Cc1ccccc1)C(=O)N[C@@H](CC(C)C)C(=O)N[C@@H](CCN)C(=O)N[C@@H](C(=O)N[C@@H](CC(C)C)C(=O)N[C@H](C(N)=O)[C@@H](C)CC)C(C)C)[C@@H](C)CC	16 (≈ 14.4 µM)	32 (≈ 28.7 µM)	4 (≈ 3.59 µM)	32 (≈ 28.7 µM)	8 (≈ 7.18 µM)	128 (≈ 115 µM)	512	< 5	–
CCCCCC(=O)N[C@@H](CCN)C(=O)N[C@H](C(=O)N[C@@H](CCN)C(=O)N[C@H](Cc1ccccc1)C(=O)N[C@@H](CC(C)C)C(=O)N[C@@H](CCN)C(=O)N[C@@H](C(=O)N[C@@H](CC(C)C)C(=O)N[C@@H](Cc1ccccc1)C(N)=O)C(C)C)[C@@H](C)CC	16 (≈ 13.9 µM)	32 (≈ 27.9 µM)	4 (≈ 3.48 µM)	16 (≈ 13.9 µM)	4 (≈ 3.48 µM)	64 (≈ 55.7 µM)	512	< 5	–
CCCCCC(=O)N[C@H]1CCNC(=O)[C@H]([C@@H](C)O)NC(=O)[C@H](CC(C)C)NC(=O)[C@@H](C(C)C)NC(=O)[C@H](CCN)NC(=O)[C@H](CC(C)C)NC(=O)[C@@H](Cc2ccccc2)NC(=O)[C@H](CCN)NC(=O)[C@H]([C@@H](C)CC)NC1=O	32 (≈ 29.5 µM)	64 (≈ 59 µM)	> 128	> 128	128 (≈ 118 µM)	> 128	512	< 5	–
CCCCCC(=O)N[C@@H](CCN)C(=O)N[C@H](C(=O)N[C@@H](CCN)C(=O)N[C@H](Cc1ccccc1)C(=O)N[C@@H](CC(C)C)C(=O)N[C@@H](CCN)C(=O)N[C@@H](C(=O)N[C@@H](CC(C)C)C(=O)N[C@@H](CCCCN)C(N)=O)C(C)C)[C@@H](C)CC	64 (≈ 56.7 µM)	32 (≈ 28.3 µM)	2 (≈ 1.77 µM)	64 (≈ 56.7 µM)	8 (≈ 7.08 µM)	128 (≈ 113 µM)	512	< 5	–
